Laboratory results reported in patent US6737383B1, “Herbicidal oxadiazolidines” (priority 1999, dated 2004).

What was measured:
smallflower flatsedge = assay: Test B flood test smallflower flatsedge; format: in vivo, Cyperus difformis
Summary of the method: (§1)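 Each value is a visual injury score relative to controls, with 10 meaning complete control and 0 no effect. Evaluation took place twelve to sixteen days after the 2-leaf-stage plants were treated and kept in the greenhouse.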

pigweed = assay: Test B pre/postemergence pigweed; format: in vivo, Amaranthus retroflexus
Summary of the method: (§2)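 Response is a visual 0-to-10 score relative to untreated plants, where 0 means no effect and 10 means complete control, taken twelve to sixteen days after application. Treatments went onto soil at planting and onto foliage of 1- to 4-leaf plants, using a surfactant-containing non-phytotoxic solvent.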

corn = assay: Test B pre/postemergence corn; format: in vivo, Zea mays
Summary of the method: as §2

soybean = assay: Test B pre/postemergence soybean; format: in vivo, Glycine max
Summary of the method: as §2

cocklebur = assay: Test B pre/postemergence cocklebur; format: in vivo, Xanthium strumarium
Summary of the method: as §2

giant foxtail = assay: Test B pre/postemergence giant foxtail; format: in vivo, Setaria faberii
Summary of the method: as §2

rice = assay: Test B flood test rice; format: in vivo, Oryza sativa
Summary of the method: as §1

wheat = assay: Test B pre/postemergence wheat; format: in vivo, Triticum aestivum
Summary of the method: as §2

rape = assay: Test B pre/postemergence rape; format: in vivo, Brassica napus
Summary of the method: as §2

duck salad = assay: Test B flood test duck salad; format: in vivo, Heteranthera limosa
Summary of the method: as §1

sugar beet = assay: Test B pre/postemergence sugar beet; format: in vivo, Beta vulgaris
Summary of the method: as §2

morningglory = assay: Test B pre/postemergence morningglory; format: in vivo, Ipomoea hederacea
Summary of the method: as §2

velvetleaf = assay: Test B pre/postemergence velvetleaf; format: in vivo, Abutilon theophrasti
Summary of the method: as §2

blackgrass = assay: Test B pre/postemergence blackgrass; format: in vivo, Alopecurus myosuroides
Summary of the method: as §2

crabgrass = assay: Test B pre/postemergence crabgrass; format: in vivo, Digitaria sanguinalis
Summary of the method: as §2

purple nutsedge = assay: Test B pre/postemergence purple nutsedge; format: in vivo, Cyperus rotundus
Summary of the method: as §2

[1] = Postemergence, Rate 62 g/ha, scale 0 to 10, 0 is no effect, 10 is complete control
[2] = Rate 125 g/ha, Postemergence section (flood test species), scale 0 to 10, 0 no effect, 10 complete control
[3] = Rate 500 g/ha, listed under Postemergence (flood test species), scale 0 to 10, 0 no effect, 10 complete control
[4] = flood test, listed under Postemergence, Rate 250 g/ha, scale 0 to 10, 0 no effect, 10 complete control
[5] = Postemergence, Rate 250 g/ha, scale 0 to 10, 0 no effect, 10 complete control
[6] = Preemergence, Rate 62 g/ha, scale 0 to 10 (0 no effect, 10 complete control)
[7] = Preemergence, Rate 125 g/ha, scale 0 to 10 (0 no effect, 10 complete control)
[8] = Preemergence, Rate 250 g/ha, scale of 0 to 10 where 0 is no effect and 10 is complete control
[9] = Preemergence, Rate 500 g/ha, scale 0 (no effect) to 10 (complete control)
[10] = Rate 125 g/ha, Postemergence, scale 0 to 10, 0 no effect, 10 complete control
[11] = Rate 500 g/ha, Postemergence, scale 0 to 10, 0 no effect, 10 complete control

Compound: Cc1cccc(C(C)C)c1-n1c(=O)on(C(=O)N(c2ccc(Cl)cc2)C(C)C)c1=O [Compound 64]
- S. Flatsedge plant response rating (smallflower flatsedge; [1]): 0
- S. Flatsedge plant response rating (smallflower flatsedge; [2]): 0
- S. Flatsedge plant response rating (smallflower flatsedge; [3]): 0
- S. Flatsedge plant response rating (smallflower flatsedge; [4]): 0
- Redroot pigweed plant response rating (pigweed; [1]): 0
- Redroot pigweed plant response rating (pigweed; [5]): 0
- Redroot pigweed plant response rating (pigweed; [6]): 0
- Plant response rating, Redroot pigweed (pigweed; [7]): 0
- Plant response rating, Redroot pigweed (pigweed; [8]): 0
- Redroot pigweed plant response rating (pigweed; [9]): 0
- Redroot pigweed plant response rating (pigweed; [10]): 0
- Redroot pigweed plant response rating (pigweed; [11]): 0
- Corn plant response rating (corn; [1]): 0
- Corn plant response rating (corn; [5]): 0
- Corn plant response rating (corn; [6]): 0
- Plant response rating, Corn (corn; [7]): 0
- Plant response rating, Corn (corn; [8]): 0
- Corn plant response rating (corn; [9]): 0
- Corn plant response rating (corn; [10]): 0
- Corn plant response rating (corn; [11]): 0
- Soybean plant response rating (soybean; [1]): 0
- Soybean plant response rating (soybean; [5]): 0
- Soybean plant response rating (soybean; [6]): 0
- Plant response rating, Soybean (soybean; [7]): 0
- Plant response rating, Soybean (soybean; [8]): 0
- Soybean plant response rating (soybean; [9]): 0
- Soybean plant response rating (soybean; [10]): 0
- Soybean plant response rating (soybean; [11]): 1
- Cocklebur plant response rating (cocklebur; [1]): 0
- Cocklebur plant response rating (cocklebur; [5]): 0
- Cocklebur plant response rating (cocklebur; [6]): 0
- Plant response rating, Cocklebur (cocklebur; [7]): 0
- Plant response rating, Cocklebur (cocklebur; [8]): 0
- Cocklebur plant response rating (cocklebur; [9]): 0
- Cocklebur plant response rating (cocklebur; [10]): 0
- Cocklebur plant response rating (cocklebur; [11]): 0
- Giant foxtail plant response rating (giant foxtail; [1]): 0
- Giant foxtail plant response rating (giant foxtail; [5]): 0
- Giant foxtail plant response rating (giant foxtail; [6]): 0
- Plant response rating, Giant foxtail (giant foxtail; [7]): 0
- Plant response rating, Giant foxtail (giant foxtail; [8]): 3
- Giant foxtail plant response rating (giant foxtail; [9]): 4
- Giant foxtail plant response rating (giant foxtail; [10]): 0
- Giant foxtail plant response rating (giant foxtail; [11]): 0
- Rice plant response rating (rice; [1]): 0
- Rice plant response rating (rice; [2]): 0
- Rice plant response rating (rice; [3]): 0
- Rice plant response rating (rice; [4]): 0
- Wheat plant response rating (wheat; [1]): 0
- Wheat plant response rating (wheat; [5]): 0
- Wheat plant response rating (wheat; [6]): 0
- Plant response rating, Wheat (wheat; [7]): 0
- Plant response rating, Wheat (wheat; [8]): 0
- Wheat plant response rating (wheat; [9]): 0
- Wheat plant response rating (wheat; [10]): 0
- Wheat plant response rating (wheat; [11]): 0
- Rape plant response rating (rape; [1]): 0
- Rape plant response rating (rape; [5]): 0
- Rape plant response rating (rape; [6]): 0
- Plant response rating, Rape (rape; [7]): 0
- Plant response rating, Rape (rape; [8]): 0
- Rape plant response rating (rape; [9]): 0
- Rape plant response rating (rape; [10]): 0
- Rape plant response rating (rape; [11]): 0
- Ducksalad plant response rating (duck salad; [1]): 0
- Ducksalad plant response rating (duck salad; [2]): 0
- Ducksalad plant response rating (duck salad; [3]): 0
- Ducksalad plant response rating (duck salad; [4]): 0
- Sugarbeets plant response rating (sugar beet; [1]): 0
- Sugarbeets plant response rating (sugar beet; [5]): 0
- Sugarbeets plant response rating (sugar beet; [6]): 0
- Plant response rating, Sugarbeets (sugar beet; [7]): 0
- Plant response rating, Sugarbeets (sugar beet; [8]): 0
- Sugarbeets plant response rating (sugar beet; [9]): 0
- Sugarbeets plant response rating (sugar beet; [10]): 0
- Sugarbeets plant response rating (sugar beet; [11]): 0
- Morningglory plant response rating (morningglory; [1]): 0
- Morningglory plant response rating (morningglory; [5]): 0
- Morningglory plant response rating (morningglory; [6]): 0
- Plant response rating, Morningglory (morningglory; [7]): 0
- Plant response rating, Morningglory (morningglory; [8]): 0
- Morningglory plant response rating (morningglory; [9]): 0
- Morningglory plant response rating (morningglory; [10]): 0
- Morningglory plant response rating (morningglory; [11]): 0
- Velvetleaf plant response rating (velvetleaf; [1]): 0
- Velvetleaf plant response rating (velvetleaf; [5]): 0
- Velvetleaf plant response rating (velvetleaf; [6]): 0
- Plant response rating, Velvetleaf (velvetleaf; [7]): 0
- Plant response rating, Velvetleaf (velvetleaf; [8]): 0
- Velvetleaf plant response rating (velvetleaf; [9]): 0
- Velvetleaf plant response rating (velvetleaf; [10]): 0
- Velvetleaf plant response rating (velvetleaf; [11]): 0
- Blackgrass plant response rating (blackgrass; [1]): 0
- Blackgrass plant response rating (blackgrass; [5]): 0
- Blackgrass plant response rating (blackgrass; [6]): 0
- Plant response rating, Blackgrass (blackgrass; [7]): 0
- Plant response rating, Blackgrass (blackgrass; [8]): 0
- Blackgrass plant response rating (blackgrass; [9]): 0
- Blackgrass plant response rating (blackgrass; [10]): 0
- Blackgrass plant response rating (blackgrass; [11]): 0
- Crabgrass plant response rating (crabgrass; [1]): 0
- Crabgrass plant response rating (crabgrass; [5]): 0
- Crabgrass plant response rating (crabgrass; [6]): 0
- Plant response rating, Crabgrass (crabgrass; [7]): 0
- Plant response rating, Crabgrass (crabgrass; [8]): 2
- Crabgrass plant response rating (crabgrass; [9]): 3
- Crabgrass plant response rating (crabgrass; [10]): 0
- Crabgrass plant response rating (crabgrass; [11]): 0
- Nutsedge plant response rating (purple nutsedge; [1]): 0
- Nutsedge plant response rating (purple nutsedge; [5]): 0
- Nutsedge plant response rating (purple nutsedge; [6]): 0
- Plant response rating, Nutsedge (purple nutsedge; [7]): 0
- Plant response rating, Nutsedge (purple nutsedge; [8]): 0
- Nutsedge plant response rating (purple nutsedge; [10]): 0
- Nutsedge plant response rating (purple nutsedge; [11]): 0
